Source: patent publication US9499509B2, “Dihydrochalcone derivatives and their use as antibiotic agents” (UNIVERSITÉ DU QUÉBEC À CHICOUTIMI, priority 2012, dated 2016)
Converted amounts (≈) assume the structure as drawn. Read-outs that look alike come from different tables or passages of the source.

Experiments:
[1] = system: S. aureus wild type strain (ATCC 25923); test: Antibiotic assay (resazurin, Example 1), S. aureus wild type; assay type: cell-based, Staphylococcus aureus; conditions: Staphylococcus aureus, ATCC25923, S. aureus WT ATCC 25923
Procedure: (§1) Bacteria Strain. […] The MRSA were obtained as further described below.
(§2) Antibiotic agents. Cyprofloxacin and erythromycin were provided by Sigma-Aldrich. Gentamicin sulfate and vancomycin hydrochloride were provided by Calbiochem.
(§3) MRSA. Ten (10) strains of MRSA obtained as described above were tested along with an S. aureus wild type (WT) strain (ATCC25923).

[2] = system: methicillin-resistant Staphylococcus aureus (MRSA) strains; test: Antibiotic assay (resazurin, Example 1), MRSA strains; assay type: cell-based
From the text: as §1, §2
Isolation and identification of methicillin-resistant Staphylococcus aureus (MRSA) strains. From March 2007 to March 2008, 35 screening swabs from nares (n=31), throat (n=3), Groin pus (n=1) were obtained from patients hospitalized at Chicoutimi hospital. Identification of S. aureus was performed using the Slidex Staph-Kit (bioMerieux Vitek, Inc., Hazelwood, Mo.) according to the manufacturer's instructions. Quality control was performed with MRSA strain ATCC 43300 and S. aureus strain ATCC 25923. In addition, S. aureus profile was determined with API Staph test strip with bacterial suspension of saline McFarland of 0.5 (bioMerieux, Durham, N.C.) according to the manufacturer's protocol. API Staph strips were held for 24 h before the results were read. A latex agglutination (SLIDEX) test detecting methicilin resistance in Staphylococci based on the production of low-affinity PBP2a, which is encoded by the mecA gene was performed on all strains. An antibiogram was also performed to confirm the identification of MRSA strains using disk diffusion test.
Antibiotic susceptibility testing using disk diffusion method. The antimicrobial activity of different classes of antibiotics of the potential MRSA was determined by diffusion method (Kirby-Bauer) as described by NCCLS. The antibiotics tested included: penicillin (10 units), amoxicillin/clavulanic acid (20/10 μg), ciprofloxacin (5 μg), moxifloxacin (5 μg), levofloxacin (5 μg), clindamycin (15 μg), erythromycin (15 μg), cefoxitin (30 μg), linezolid (30 μg), trimethoprim/sulfomethoxazole (1.25/23.75 μg), rifampicin (5 μg), gentamicin (10 μg) and vancomycin (30 μg). The agar medium had pH 7.2 to 7.4 before inoculing potentiel MRSA. The antibiotics were maintained at 8° C. or lower −14° C. according to manufacturer's recommendations. The pure culture was inoculated on a non-selective plate for 18-24 h. Each colony was collected with a wire loop and transfered the growth to a tube containing 4 to 5 mL of a tryptic-soy broth. The inoculum density was standarized with BaSO4 using 0.5 McFarland standard. All strains were incubated at 37° C. until it achieves or exceeds the turbidity of 0.5 McFarland standard. Inoculation of the dried surface (Muller-Hinton agar plate) by streaking the swab over the entire sterile agar surface. This procedure was repeated two more times. After 15 min, the appropriate disk were applied on the surface with a sterile forceps. The inverted plates was placed in a incubator at 37° C./air/16 to 18 h or 24 h for vancomycin. The inhibition zones were measured with a millimetric ruler. Interpretation of zone sizes by references of the manufacturer. Quality control organisms used were ATCC strains number 25923.
as §3

[3] = system: Enterococcus faecalis; test: Antibiotic assay (resazurin, Example 1), Enterococcus faecalis; assay type: cell-based; conditions: for IC50: read-out: IC50
Procedure: as §1, §2
(§4) Five additional strains were tested: Streptococcus pneumoniae, Streptococcus agalactiae, Streptococcus pyogenes, Enterococcus faecalis and Corynebacterium jeikeium.

[4] = system: Streptococcus pneumoniae; test: Antibiotic assay (resazurin, Example 1), Streptococcus pneumoniae; assay type: cell-based; conditions: for IC50 / MIC: Streptococcus pneumoniae; for IC50: read-out: IC50; for MIC: read-out: Minimum Inhibitory Concentration (MIC)
Procedure: as §1, §2, §4

[5] = system: Streptococcus pyogenes; test: Antibiotic assay (resazurin, Example 1), Streptococcus pyogenes; assay type: cell-based; conditions: Streptococcus pyogenes; for IC50: read-out: IC50; for MIC: read-out: Minimum Inhibitory Concentration (MIC)
Procedure: as §1, §2, §4

[6] = system: Streptococcus agalactiae; test: Antibiotic assay (resazurin, Example 1), Streptococcus agalactiae; assay type: cell-based; conditions: for IC50: read-out: IC50
Procedure: as §1, §2, §4

[7] = system: S. epidermidis; test: Antibiotic assay (resazurin, Example 1), S. epidermidis strains; conditions: Staphylococcus epidermidis
Procedure: The antibiotic assays were performed in 96-well plates (BD Falcon). The bacteria strains were inoculated in Nutrient Broth (BD) for the gram negative bacteria and Tryptic soy broth (BD) with 10% of defibrinated sheep blood (PML microbiological) for gram positive strain. All bacteria strains were dosed by spectrophotometry at 660 nm where 1 D.O=2×10^8 bacteria/mL. All bacteria were plated in their respective broth at a concentration of 450 000 bacteria/mL.
Compounds I, II and III were diluted in methanol and the above-noted antibiotic agents were diluted in water. The solvent concentration was 0.25%, which was not toxic for the bacteria. Compounds I, II and III and the above-noted antibiotic agents were tested at 8 different concentrations.
Each well contained: 100 μL of bacteria, 50 μL of the compounds tested (compound I, II, III or the above-noted antibiotic agent) and 50 μL of a 4% resazurin (Sigma) solution. The plates were incubated at 37° C. for 5 h. The fluorescence was read using a Fluoroskan Ascent™ FL (thermo) using an excitation wavelength of 530 nm and an emission wavelength of 590 nm.
Two different strains of Staphylococcus were tested, namely the S. epidermidis and the S. aureus strains.

[8] = system: Corynebacterium jeikeium; test: Antibiotic assay (resazurin, Example 1), Corynebacterium jeikeium; assay type: cell-based; conditions: Corynebacterium jeikeium, Coryne. jeikeium 14139
Procedure: as §1, §2, §4

[9] = read-out: Minimum Inhibitory Concentration (MIC)

## O=C(O)c1cn(C2CC2)c2cc(N3CCNCC3)c(F)cc2c1=O [Ciprofloxacin, reference compound]
[1]; read-out: IC50
  IC50: 0.4 ± 0.2 µM
[1]; [9]
  MIC: 47.9 µM (≈ 15.9 µg/mL)
[2]; MRSA 1
  Minimum Inhibitory Concentration (MIC): (>186) μM
[2]; MRSA 3
  Minimum Inhibitory Concentration (MIC): (>186) μM
[2]; MRSA 4
  Minimum Inhibitory Concentration (MIC): (>186) μM
[2]; MRSA 5
  Minimum Inhibitory Concentration (MIC): (>186) μM
[2]; MRSA 6
  Minimum Inhibitory Concentration (MIC): (>186) μM
[2]; MRSA 7
  Minimum Inhibitory Concentration (MIC): (>186) μM
[2]; MRSA 8
  Minimum Inhibitory Concentration (MIC): (>186) μM
[2]; MRSA 9
  Minimum Inhibitory Concentration (MIC): (>186) μM
[2]; MRSA 10
  Minimum Inhibitory Concentration (MIC): (>186) μM
[2]; Staphylococcus aureus, MRSA, MRSA1, read-out: IC50
  IC50: 102 ± 6 µM
[2]; Staphylococcus aureus, MRSA, MRSA2, read-out: IC50
  IC50: 156 ± 11 µM
[2]; Staphylococcus aureus, MRSA, MRSA2, read-out: Minimum Inhibitory Concentration (MIC)
  MIC: > 186 µM
[2]; Staphylococcus aureus, MRSA, MRSA3, read-out: IC50
  IC50: > 186 µM
[2]; Staphylococcus aureus, MRSA, MRSA4, read-out: IC50
  IC50: 134 ± 7 µM
[2]; Staphylococcus aureus, MRSA, MRSA5, read-out: IC50
  IC50: 109 ± 4 µM
[2]; Staphylococcus aureus, MRSA, MRSA6, read-out: IC50
  IC50: 131 ± 9 µM
[2]; Staphylococcus aureus, MRSA, MRSA7, read-out: IC50
  IC50: 128 ± 9 µM
[2]; Staphylococcus aureus, MRSA, MRSA8, read-out: IC50
  IC50: 119 ± 9 µM
[2]; Staphylococcus aureus, MRSA, MRSA9, read-out: IC50
  IC50: 106 ± 11 µM
[2]; Staphylococcus aureus, MRSA, MRSA10, read-out: IC50
  IC50: 122 ± 16 µM
[2]; Staphylococcus aureus, MRSA, all MRSA strains, read-out: IC50 values against the MRSA strains
  IC50: 100 to 150 µM
[3]; Ent. Faecalis 14115
  Minimum Inhibitory Concentration (MIC): (>200) μM
[3]; Enterococcus faecalis, Ent. Faecalis 14078
  IC50: 15 ± 2 µM
[3]; Enterococcus faecalis, Ent. Faecalis 14078, read-out: Minimum Inhibitory Concentration (MIC)
  MIC: > 200 µM
[3]; Enterococcus faecalis, Ent. Faecalis 14115
  IC50: > 200 µM
[3]; in words
  activity against Enterococcus faecalis 14115 strain: not active
[4]; Strep. pneumoniae 14070
  IC50: > 200 µM
  MIC: > 200 µM
[4]; Strep. pneumoniae 14112
  IC50: 63 ± 6 µM
  MIC: 200 µM (≈ 66.3 µg/mL)
[4]; Strep. pneumoniae 14138
  IC50: > 200 µM
  MIC: > 200 µM
[4]; Strep. pneumoniae 14144
  IC50: > 200 µM
  MIC: > 200 µM
[4]; Strep. pneumoniae 14148
  IC50: 56 ± 6 µM
  MIC: 200 µM (≈ 66.3 µg/mL)
[4]; in words
  activity against Streptococcus pneumoniae strain 14144: not active
[5]; Strep. pyogenes 14149
  IC50: 43 ± 2 µM
  MIC: 169 µM (≈ 56 µg/mL)
[5]; Strep. pyogenes 14152
  IC50: 0.6 ± 1 µM
  MIC: 37.4 µM (≈ 12.4 µg/mL)
[6]; Strep. agalactiae 14151
  Minimum Inhibitory Concentration (MIC): (>200) μM
[6]; Strep. agalactiae 14153
  Minimum Inhibitory Concentration (MIC): (>200) μM
[6]; Streptococcus agalactiae, Strep. agalactiae 14150
  IC50: 138 ± 10 µM
[6]; Streptococcus agalactiae, Strep. agalactiae 14150, read-out: Minimum Inhibitory Concentration (MIC)
  MIC: > 200 µM
[6]; Streptococcus agalactiae, Strep. agalactiae 14151
  IC50: > 200 µM
[6]; Streptococcus agalactiae, Strep. agalactiae 14153
  IC50: 190 ± 10 µM
[7]; S. epidermidis 14069
  IC50: 31 ± 2 µM
[7]; S. epidermidis 14085
  IC50: 26.3 ± 0.8 µM
[7]; S. epidermidis 14093
  IC50: < 1.56 µM
[7]; S. epidermidis 14134
  IC50: 44 ± 1 µM
[7]; S. epidermidis 14143
  IC50: 80 ± 7 µM
[7]; read-out: Minimum Inhibitory Concentration (MIC), S. epidermidis 14069
  MIC: > 200 µM
[7]; read-out: Minimum Inhibitory Concentration (MIC), S. epidermidis 14085
  MIC: > 200 µM
[7]; read-out: Minimum Inhibitory Concentration (MIC), S. epidermidis 14093
  MIC: 77.1 µM (≈ 25.5 µg/mL)
[7]; read-out: Minimum Inhibitory Concentration (MIC), S. epidermidis 14134
  MIC: > 200 µM
[7]; read-out: Minimum Inhibitory Concentration (MIC), S. epidermidis 14143
  MIC: > 200 µM
[8]; read-out: IC50
  IC50: 1.42 ± 0.07 µM
[8]; [9]
  MIC: 16.4 µM (≈ 5.43 µg/mL)
